According to patent publication US12653190B2, “Heteroaryl-triazole compounds as pesticides” (Bayer Aktiengesellschaft, priority 2020, dated 2026):

Legend:
Type in all cases: in vivo
[1] = test system: adult engorged female ticks (Rhipicephalus microplus); experiment: Rhipicephalus (Boophilus) microplus injection test; settings: 168 h, egg deposition monitored after 7 days, read-out: efficacy (infertile eggs); for pest or weed control at 4 µg/tick: 4 μg/tick injected; for pest or weed control at 20 µg/tick: 20 μg/tick injected
Procedure: Rhipicephalus (Boophilus) microplus—Iniectiontest
• Solvent: dimethyl sulfoxide
To produce a suitable preparation of active compound, 10 mg of active compound are dissolved in 0.5 mL solvent, and the concentrate is diluted with solvent to the desired concentration.
Five adult engorged female ticks (Rhipicephalus microplus) are injected with 1 μL compound solution into the abdomen. The ticks are transferred into replica plates and incubated in a climate chamber.
After 7 days egg deposition of fertile eggs is monitored. Eggs where fertility is not visible are stored in a climate chamber till hatching after about 42 days. An efficacy of 100% means all eggs are infertile; 0% means all eggs are fertile.

[2] = test system: larvae of the banded cucumber beetle (Diabrotica balteata); experiment: Diabrotica balteata spray test; settings: 168 h, 100 g/ha (=32 μg/well), after 7 days, wheat seeds, read-out: efficacy (seedling growth)
Procedure: Diabrotica balteata—Spray Test
(§1) • Solvent: 78.0 parts by weight of acetone • 1.5 parts by weight of dimethylformamide • Emulsifier: alkylarylpolyglycol ether
(§2) To produce a suitable preparation of active compound, 1 part by weight of active compound is mixed with the stated amount of solvent, and the concentrate is diluted with water, containing an emulsifier concentration of 1000 ppm, to the desired concentration. Further test concentrations are prepared by dilution with emulsifier containing water.
Soaked wheat seeds (Triticum aestivum) are placed in a multiple well plate filled with agar and some water and are incubated for 1 day to germinate (5 seeds per well). The germinated wheat seeds are sprayed with a test solution containing the desired concentration of the active ingredient. Afterwards each unit is infected with 10-20 larvae of the banded cucumber beetle (Diabrotica balteata).
After 7 days efficacy in % is determined. 100% means all the seedlings have grown up like in the untreated, uninfected control; 0% means none of the seedlings have grown.

[3] = test system: fall armyworm larvae (Spodoptera frugiperda); experiment: Spodoptera frugiperda spray test; settings: in Zea mays, 168 h
Procedure: Spodoptera frugiperda—Spray Test
• Solvent: 78.0 parts by weight acetone • 1.5 parts by weight dimethylformamide • Emulsifier: alkylarylpolyglycol ether
as §2, with “solvents” for “solvent,”, “and” for “and the concentrate”
Maize (Zea mays) leaf sections are sprayed with a preparation of the active ingredient of the desired concentration. Once dry, the leaf sections are infested with fall armyworm larvae (Spodoptera frugiperda). After 7 days mortality in % is determined. 100% means all caterpillars have been killed and 0% means none of the caterpillars have been killed.

[4] = test system: larvae of the southern green stink bug (Nezara viridula); experiment: Nezara viridula spray test; settings: 96 h, after 4 days, barley plants
Procedure: Nezara viridula—Spray Test
as §1, §2
Barley plants (Hordeum vulgare) are sprayed with a test solution containing the desired concentration of the active ingredient and are infested with larvae of the southern green stink bug (Nezara viridula).
After 4 days mortality in % is determined. 100% means all the stink bugs have been killed; 0% means none of the stink bugs have been killed.

Compound	pest or weed control at 32 µg/disc, 100 g/ha [2] [%]	mortality at 100 g/ha [3] [%]	other results
CC(=O)Oc1cc(Cl)cc(C(=O)N[C@@H](C)c2ncnn2-c2ccc(C#N)cn2)c1 [Example I-11]	–	–	pest or weed control at 4 µg/tick [1]: 80%; pest or weed control at 20 µg/tick [1]: 80%
Cc1nc([C@H](C)NC(=O)c2cc(OC(C)c3cccc(Cl)c3)cc(C(F)(F)F)c2)n(-c2ccc(C#N)cn2)n1 (stereo partly drawn) [Example I-12, 3-[1-(3-Chlorophenyl)ethoxy]-N-{(1S)-1-[1-(5-cyanopyridin-2-yl)-3-methyl-1H-1,2,4-triazol-5-yl]ethyl}-5-(trifluoromethyl)benzamide]	–	–	pest or weed control at 4 µg/tick [1]: 100%; pest or weed control at 20 µg/tick [1]: 100%
Cc1nc([C@H](C)NC(=O)c2cc(OCc3cccc(Cl)c3)cc(C(F)(F)F)c2)n(-c2ccc(C#N)cn2)n1 [Example I-13, 3-[(3-Chlorobenzyl)oxy]-N-{(1S)-1-[1-(5-cyanopyridin-2-yl)-3-methyl-1H-1,2,4-triazol-5-yl]ethyl}-5-(trifluoromethyl)benzamide]	100	–	pest or weed control at 4 µg/tick [1]: 80%; pest or weed control at 20 µg/tick [1]: 100%
Cc1nc([C@H](C)NC(=O)c2cc(OC(C)c3ccccc3Cl)cc(C(F)(F)F)c2)n(-c2ccc(C#N)cn2)n1 (stereo partly drawn) [Example I-14, 3-[1-(2-Chlorophenyl)ethoxy]-N-{(1S)-1-[1-(5-cyanopyridin-2-yl)-3-methyl-1H-1,2,4-triazol-5-yl]ethyl}-5-(trifluoromethyl)benzamide]	–	–	pest or weed control at 4 µg/tick [1]: 100%; pest or weed control at 20 µg/tick [1]: 100%
Cc1nc([C@H](C)NC(=O)c2cc(OCc3ccccc3Cl)cc(C(F)(F)F)c2)n(-c2ccc(C#N)cn2)n1 [Example I-16, 3-[(2-Chlorobenzyl)oxy]-N-{(1S)-1-[1-(5-cyanopyridin-2-yl)-3-methyl-1H-1,2,4-triazol-5-yl]ethyl}(trifluoromethyl)benzamide]	–	–	pest or weed control at 4 µg/tick [1]: 100%; pest or weed control at 20 µg/tick [1]: 100%
Cc1nc([C@H](C)NC(=O)c2cc(OCc3ccccc3)cc(C(F)(F)F)c2)n(-c2ccc(C#N)cn2)n1 [Example I-18, 3-(Benzyloxy)-N-{(1S)-1-[1-(5-cyanopyridin-2-yl)-3-methyl-1H-1,2,4-triazol-5-yl]ethyl}-5-(trifluoromethyl)benzamide]	100	–	pest or weed control at 4 µg/tick [1]: 100%
Cc1nc([C@H](C)NC(=O)c2cc(OCc3ccc(Cl)cc3)cc(C(F)(F)F)c2)n(-c2ccc(C#N)cn2)n1 [Example I-20, 3-[(4-Chlorobenzyl)oxy]-N-{(1S)-1-[1-(5-cyanopyridin-2-yl)-3-methyl-1H-1,2,4-triazol-5-yl]ethyl}-5-(trifluoromethyl)benzamide]	–	–	pest or weed control at 4 µg/tick [1]: 100%
Cc1nc([C@H](C)NC(=O)c2cc(O)cc(C(F)(F)F)c2)n(-c2ccc(C#N)cn2)n1 [Example I-47, N-{(1S)-1-[1-(5-Cyanopyridin-2-yl)-3-methyl-1H-1,2,4-triazol-5-yl]ethyl}-3-hydroxy-5-(trifluoromethyl)benzamide]	–	–	pest or weed control at 4 µg/tick [1]: 100%; pest or weed control at 20 µg/tick [1]: 100%
C[C@H](NC(=O)c1cc(Br)cc(OC2CC2)c1)c1ncnn1-c1ncc(C#N)s1 [Example I-49]	100	100	–
C[C@H](NC(=O)c1cc(Cl)cc(CC#N)c1)c1ncnn1-c1ncc(C#N)s1 [Example I-50]	100	–	–
C[C@H](NC(=O)c1cc(C(C)(C)C#N)cc(S(C)(=O)=O)c1)c1ncnn1-c1ncc(C#N)s1 [Example I-55]	–	100	mortality at 100 g/ha ([4]; 100 g/ha): 90%; mortality at 500 g/ha [4]: 90%
C[C@H](NC(=O)c1cc(CC#N)cc(OC(F)(F)F)c1)c1ncnn1-c1cnc(C#N)cn1 [Example I-57]	–	100	–
C[C@H](NC(=O)c1cc(Br)cc(OCC2CC2(Cl)Cl)c1)c1ncnn1-c1ncc(C#N)s1 (stereo partly shown) [Example I-62]	100	–	–
C[C@H](NC(=O)c1cc(Br)cc(OCC2CC2(F)F)c1)c1ncnn1-c1ncc(C#N)s1 (stereo partly shown) [Example I-63]	100	–	–
C[C@H](NC(=O)c1cc(OC2CC2)cc(OC(F)(F)F)c1)c1ncnn1-c1ncc(C#N)s1 [Example I-64]	100	100	mortality at 500 g/ha [4]: 100%
C[C@H](NC(=O)c1cc(OC(F)(F)F)cc(C(C)(C)C#N)c1)c1nc(C2CC2)nn1-c1ncc(C#N)s1 [Example I-67]	100	100	–
C[C@H](NC(=O)c1cc(Cl)nc(C(C)(C)C#N)c1)c1nc(C2CC2)nn1-c1ncc(C#N)s1 [Example I-69]	100	100	–
Cc1nc([C@H](C)NC(=O)c2cc(Cl)nc(C(C)(C)C#N)c2)n(-c2ncc(C#N)s2)n1 [Example I-70]	100	100	mortality at 500 g/ha [4]: 100%

Compound	pest or weed control at 32 µg/disc, 100 g/ha [2] [%]	mortality at 100 g/ha [3] [%]	other results
C[C@H](NC(=O)c1cc(Cl)nc(C(C)(C)C#N)c1)c1ncnn1-c1ncc(C#N)s1 [Example I-71]	100	100	mortality at 500 g/ha [4]: 100%
C[C@H](NC(=O)c1cc(OC(F)(F)F)cc(C(C)(C)C#N)c1)c1nc(C2CC2)nn1-c1cc(C#N)ncn1 [Example I-76]	100	100	–
C[C@H](NC(=O)c1cc(Br)cc(C(F)(F)c2ccc(F)cc2)c1)c1ncnn1-c1cnc(C#N)cn1 [Example I-77]	100	100	–
C[C@H](NC(=O)c1cc(Br)cc(C(F)(F)c2ccc(F)cc2)c1)c1ncnn1-c1ncc(C#N)s1 [Example I-78]	100	100	–
Cc1nc([C@H](C)NC(=O)c2cc(Br)cc(C(F)(F)c3ccc(F)cc3)c2)n(-c2ncc(C#N)s2)n1 [Example I-79]	100	100	–
C[C@H](NC(=O)c1cc(Br)cc(C(F)(F)c2ccc(F)cc2)c1)c1ncnn1-c1cc(C#N)ncn1 [Example I-80]	100	100	–
C[C@H](NC(=O)c1cc(Cl)cc(C(=O)C2CC2)c1)c1ncnn1-c1cc(C#N)ncn1 [Example I-81]	100	100	–
Cc1nc([C@H](C)NC(=O)c2cc(Cl)cc(C(=O)C3CC3)c2)n(-c2ncc(C#N)s2)n1 [Example I-82]	100	100	–
C[C@H](NC(=O)c1cc(Cl)cc(C(=O)C2CC2)c1)c1ncnn1-c1ncc(C#N)s1 [Example I-83]	100	100	–
C[C@H](NC(=O)c1cc(Br)cc(OC(C)(C)C#N)c1)c1ncnn1-c1cnc(C#N)cn1 [Example I-84]	–	100	–
C[C@H](NC(=O)c1cc(Br)cc(OC(C)(C)C#N)c1)c1ncnn1-c1cc(C#N)ncn1 [Example I-85]	–	100	–
C[C@H](NC(=O)c1cc(OC2CC2)cc(OC(F)(F)F)c1)c1ncnn1-c1cnc(C#N)cn1 [Example I-86]	100	100	–
C[C@H](NC(=O)c1cc(OC2CC2)cc(OC(F)(F)F)c1)c1ncnn1-c1cc(C#N)ncn1 [Example I-87]	80	100	–
Cc1nc([C@H](C)NC(=O)c2cc(OC3CC3)cc(OC(F)(F)F)c2)n(-c2ncc(C#N)s2)n1 [Example I-88]	100	100	–
C[C@H](NC(=O)c1cc(OC(C)(C)C#N)cc(C2CC2)c1)c1ncnn1-c1ncc(C#N)s1 [Example I-89]	100	–	–
Cc1nc([C@H](C)NC(=O)c2cc(OC(C)(C)C#N)cc(C3CC3)c2)n(-c2ncc(C#N)s2)n1 [Example I-90]	100	–	–
C[C@H](NC(=O)c1cc(OC(C)(C)C#N)cc(C2CC2)c1)c1ncnn1-c1cc(C#N)ncn1 [Example I-92]	–	100	–
C[C@H](NC(=O)c1cc(C(C)(C)C#N)cc(S(C)(=O)=O)c1)c1nc(C2CC2)nn1-c1ncc(C#N)s1 [Example I-93]	80	100	–
